Assay results published in patent US20240300927A1, “AMIDES AS CBL-B INHIBITORS” (Genentech, Inc., priority 2021, published 2024).
pIC50: −log10 of the molar value.

Assays:
Cbl-b = Cbl-b (Homo sapiens (Human), UniProt Q13191); experiment: Cbl-b LCK Ub TR-FRET assay (Cbl-b Lck HTRF); assay type: biochemical; details: for (fold-selectivity): Cbl-b and C-Cbl selectivity, Lck HTRF; for pIC50: read-out: Cbl-b Lck HTRF IC50
In short: (§1)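 Biotin-Cbl-b (16 nM) or biotin-c-Cbl (12 nM) at 2× preincubated with compound 60 min, then His-LCK (120 nM), 1 mM ATP and MgCl2 (2× mix) added for 90 min at RT. Buffer: HEPES pH 7.0, DTT. UBE2D2–HA-ubiquitin transfer read by TR-FRET (665/615 nm); IC50 versus no-LCK and DMSO controls, 10-point dilutions.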

c-Cbl = c-Cbl (Homo sapiens (Human), UniProt P22681); experiment: C-cbl LCK Ub TR-FRET assay (C-cbl Lck HTRF); assay type: biochemical
Sequence of c-Cbl (P22681 47-435): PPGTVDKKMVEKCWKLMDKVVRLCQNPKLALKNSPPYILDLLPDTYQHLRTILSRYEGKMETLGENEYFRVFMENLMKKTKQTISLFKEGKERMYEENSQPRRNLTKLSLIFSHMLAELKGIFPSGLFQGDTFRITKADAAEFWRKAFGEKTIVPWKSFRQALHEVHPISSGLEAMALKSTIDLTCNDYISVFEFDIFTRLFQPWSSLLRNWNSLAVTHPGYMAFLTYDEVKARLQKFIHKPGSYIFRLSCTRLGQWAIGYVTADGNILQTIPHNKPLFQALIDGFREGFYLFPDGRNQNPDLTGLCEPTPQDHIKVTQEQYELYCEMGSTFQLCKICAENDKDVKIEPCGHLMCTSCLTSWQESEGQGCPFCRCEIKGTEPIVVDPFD
In short: as §1

Sequence of Cbl-b (Q13191 40-426): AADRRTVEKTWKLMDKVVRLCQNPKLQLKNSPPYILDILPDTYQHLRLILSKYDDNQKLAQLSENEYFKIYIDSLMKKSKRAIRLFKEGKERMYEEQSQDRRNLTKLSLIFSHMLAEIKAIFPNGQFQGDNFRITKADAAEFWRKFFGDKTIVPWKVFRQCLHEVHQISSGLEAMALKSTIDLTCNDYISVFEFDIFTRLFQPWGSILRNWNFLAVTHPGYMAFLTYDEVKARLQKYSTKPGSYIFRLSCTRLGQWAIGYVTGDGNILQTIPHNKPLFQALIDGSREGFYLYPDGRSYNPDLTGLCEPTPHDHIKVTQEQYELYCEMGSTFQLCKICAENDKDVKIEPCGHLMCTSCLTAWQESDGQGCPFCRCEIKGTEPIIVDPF

Row | SMILES | (fold-selectivity) (Cbl-b) | pIC50 (Cbl-b) | pIC50 (c-Cbl)
1 | CC(C)[C@H]1CN(C)CCN1Cc1cc(C(=O)Nc2cccc(C3([C@@H](F)c4nncn4C)CC(F)(F)C3)c2)nc(C2CC2)c1 [Compound 225, 6-cyclopropyl-N-(3-(3,3-difluoro-1-((R)-fluoro(4-methyl-4H-1,2,4-triazol-3-yl)methyl)cyclobutyl)phenyl)-4-(((S)-2-isopropyl-4-methylpiperazin-1-yl)methyl)picolinamide] | (1.2x) | 8.15 | 8.08
2 | Cn1cnnc1CC1(c2cccc(NC(=O)c3cccc(C(F)(F)F)n3)c2)CC(F)(F)C1 [Compound 16, N-(3-(3,3-difluoro-1-((4-methyl-4H-1,2,4-triazol-3-yl)methyl)cyclobutyl)phenyl)-6-(trifluoromethyl)picolinamide] | (1.6x) | 6.59 | 6.39
3 | Cn1cnnc1CC1(c2cccc(NC(=O)c3cc(CCO)cc(C(F)(F)F)n3)c2)COC1 [Compound 506, 4-(2-hydroxyethyl)-N-(3-(3-((4-methyl-4H-1,2,4-triazol-3-yl)methyl)oxetan-3-yl)phenyl)-6-(trifluoromethyl)picolinamide] | (1.1x) | 6.82 | 6.80
4 | Cn1cnnc1[C@H](F)[C@@]1(c2cccc(NC(=O)c3cccc(C(F)(F)F)n3)c2)CCO1 [Compound 501, N-(3-((S)-2-((S)-fluoro(4-methyl-4H-1,2,4-triazol-3-yl)methyl)oxetan-2-yl)phenyl)-6-(trifluoromethyl)picolinamide] | (1.1x) | 4.82 | 4.77
